One block for each compound: values may come before it.
Key:
Parameters in all cases: recommended concentration 1 uM
[1] = target: T1, Hepatocyte nuclear factor 4-alpha (Homo sapiens) (UniProt P41235); experiment: Selectivity interaction (Reporter gene assay) EUB0001167a HNF4A
T1 sequence (whole entry): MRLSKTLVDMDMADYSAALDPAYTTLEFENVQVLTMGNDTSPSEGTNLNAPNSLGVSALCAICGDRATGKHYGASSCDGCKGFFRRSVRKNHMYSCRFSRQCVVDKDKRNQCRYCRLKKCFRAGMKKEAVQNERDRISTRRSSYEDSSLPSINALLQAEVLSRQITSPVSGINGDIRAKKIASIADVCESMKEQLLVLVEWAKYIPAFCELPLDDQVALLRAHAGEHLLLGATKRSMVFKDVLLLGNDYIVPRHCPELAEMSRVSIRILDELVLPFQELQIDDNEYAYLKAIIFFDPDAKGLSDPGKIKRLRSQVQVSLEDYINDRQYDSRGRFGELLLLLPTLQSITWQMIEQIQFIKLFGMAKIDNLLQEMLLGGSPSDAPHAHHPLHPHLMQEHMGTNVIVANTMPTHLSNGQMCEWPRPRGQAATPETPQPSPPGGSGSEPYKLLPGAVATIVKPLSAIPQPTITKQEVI

[2] = target: T2, Nuclear receptor subfamily 2 group C member 1 (Homo sapiens) (UniProt P13056); experiment: Selectivity interaction (Reporter gene assay) EUB0001167a NR2C1
T2 sequence (whole entry): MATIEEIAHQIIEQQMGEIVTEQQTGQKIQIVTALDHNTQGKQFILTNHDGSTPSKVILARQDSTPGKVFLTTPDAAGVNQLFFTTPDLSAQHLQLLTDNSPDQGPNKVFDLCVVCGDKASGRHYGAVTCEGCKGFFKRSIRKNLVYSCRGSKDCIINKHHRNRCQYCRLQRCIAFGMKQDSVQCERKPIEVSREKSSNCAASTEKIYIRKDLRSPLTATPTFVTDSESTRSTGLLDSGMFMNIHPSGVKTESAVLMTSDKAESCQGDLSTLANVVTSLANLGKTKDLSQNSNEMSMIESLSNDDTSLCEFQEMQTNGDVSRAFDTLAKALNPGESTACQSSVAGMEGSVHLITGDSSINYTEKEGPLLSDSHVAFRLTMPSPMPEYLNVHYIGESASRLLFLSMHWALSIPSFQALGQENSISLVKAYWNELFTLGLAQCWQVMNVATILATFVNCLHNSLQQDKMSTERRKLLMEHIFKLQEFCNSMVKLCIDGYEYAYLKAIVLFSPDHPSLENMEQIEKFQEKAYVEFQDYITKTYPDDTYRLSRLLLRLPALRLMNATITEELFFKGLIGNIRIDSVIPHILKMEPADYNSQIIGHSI

[3] = target: Nuclear receptor subfamily 2 group E member 1 (Homo sapiens) (UniProt Q9Y466); experiment: Selectivity interaction (Reporter gene assay) EUB0001167a NR2E1
[4] = target: Nuclear receptor subfamily 4immunitygroup A member 1 (Homo sapiens) (UniProt P22736); experiment: Selectivity interaction (Reporter gene assay) EUB0001167a NR4A1
[5] = target: Steroidogenic factor 1 (Homo sapiens) (UniProt Q13285); experiment: Selectivity interaction (Reporter gene assay) EUB0001167a NR5A1
[6] = target: T3, Alpha trans-inducing protein (Human alphaherpesvirus 1) (UniProt A0A5J6DW59); experiment: Selectivity interaction (Reporter gene assay) EUB0001167a UL48
[7] = target: T4, Retinoic acid receptor RXR-alpha (Homo sapiens) (UniProt P19793); experiment: Selectivity interaction (Reporter gene assay) EUB0001167a RXRA; details: reference bexarotene 1 uM, Selectivity number of off-targets 0.0, Selectivity number of targets 1.0, Source Knowledge inhouse
T4 sequence (whole entry): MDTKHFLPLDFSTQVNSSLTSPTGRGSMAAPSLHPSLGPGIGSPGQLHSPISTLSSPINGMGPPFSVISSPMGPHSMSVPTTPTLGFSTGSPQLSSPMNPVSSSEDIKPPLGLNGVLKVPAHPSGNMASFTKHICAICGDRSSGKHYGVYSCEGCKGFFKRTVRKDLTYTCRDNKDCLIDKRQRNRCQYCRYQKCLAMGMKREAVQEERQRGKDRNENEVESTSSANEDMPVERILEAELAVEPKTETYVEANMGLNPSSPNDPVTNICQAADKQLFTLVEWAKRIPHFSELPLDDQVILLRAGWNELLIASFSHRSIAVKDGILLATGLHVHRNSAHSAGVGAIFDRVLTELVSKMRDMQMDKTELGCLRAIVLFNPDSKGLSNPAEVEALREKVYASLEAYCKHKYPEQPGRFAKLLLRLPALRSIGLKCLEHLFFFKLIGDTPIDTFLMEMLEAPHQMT

[8] = target: T1, Hepatocyte nuclear factor 4-alpha (Homo sapiens); experiment: Selectivity interaction (Reporter gene assay) EUB0001160a HNF4A
[9] = target: T2, Nuclear receptor subfamily 2 group C member 1 (Homo sapiens); experiment: Selectivity interaction (Reporter gene assay) EUB0001160a NR2C1
[10] = target: Nuclear receptor subfamily 2 group E member 1 (Homo sapiens) (UniProt Q9Y466); experiment: Selectivity interaction (Reporter gene assay) EUB0001160a NR2E1
[11] = target: Nuclear receptor subfamily 4immunitygroup A member 1 (Homo sapiens) (UniProt P22736); experiment: Selectivity interaction (Reporter gene assay) EUB0001160a NR4A1
[12] = target: Steroidogenic factor 1 (Homo sapiens) (UniProt Q13285); experiment: Selectivity interaction (Reporter gene assay) EUB0001160a NR5A1
[13] = target: T3, Alpha trans-inducing protein (Human alphaherpesvirus 1); experiment: Selectivity interaction (Reporter gene assay) EUB0001160a UL48
[14] = target: T4, Retinoic acid receptor RXR-alpha (Homo sapiens); experiment: Selectivity interaction (Reporter gene assay) EUB0001160a RXRA
[15] = target: T1, Hepatocyte nuclear factor 4-alpha (Homo sapiens); experiment: Selectivity interaction (Reporter gene assay) EUB0001166a HNF4A
[16] = target: T2, Nuclear receptor subfamily 2 group C member 1 (Homo sapiens); experiment: Selectivity interaction (Reporter gene assay) EUB0001166a NR2C1
[17] = target: Nuclear receptor subfamily 2 group E member 1 (Homo sapiens) (UniProt Q9Y466); experiment: Selectivity interaction (Reporter gene assay) EUB0001166a NR2E1
[18] = target: Nuclear receptor subfamily 4immunitygroup A member 1 (Homo sapiens) (UniProt P22736); experiment: Selectivity interaction (Reporter gene assay) EUB0001166a NR4A1
[19] = target: Steroidogenic factor 1 (Homo sapiens) (UniProt Q13285); experiment: Selectivity interaction (Reporter gene assay) EUB0001166a NR5A1
[20] = target: T3, Alpha trans-inducing protein (Human alphaherpesvirus 1); experiment: Selectivity interaction (Reporter gene assay) EUB0001166a UL48
[21] = target: T4, Retinoic acid receptor RXR-alpha (Homo sapiens); experiment: Selectivity interaction (Reporter gene assay) EUB0001166a RXRA; details: reference bexarotene 1 uM, Selectivity number of off-targets 0.0, Selectivity number of targets 1.0, Source Knowledge inhouse
[22] = target: T1, Hepatocyte nuclear factor 4-alpha (Homo sapiens); experiment: Selectivity interaction (Reporter gene assay) EUB0001158a HNF4A
[23] = target: T2, Nuclear receptor subfamily 2 group C member 1 (Homo sapiens); experiment: Selectivity interaction (Reporter gene assay) EUB0001158a NR2C1
[24] = target: Nuclear receptor subfamily 2 group E member 1 (Homo sapiens) (UniProt Q9Y466); experiment: Selectivity interaction (Reporter gene assay) EUB0001158a NR2E1
[25] = target: Nuclear receptor subfamily 4immunitygroup A member 1 (Homo sapiens) (UniProt P22736); experiment: Selectivity interaction (Reporter gene assay) EUB0001158a NR4A1
[26] = target: Steroidogenic factor 1 (Homo sapiens) (UniProt Q13285); experiment: Selectivity interaction (Reporter gene assay) EUB0001158a NR5A1
[27] = target: T3, Alpha trans-inducing protein (Human alphaherpesvirus 1); experiment: Selectivity interaction (Reporter gene assay) EUB0001158a UL48
[28] = target: T4, Retinoic acid receptor RXR-alpha (Homo sapiens); experiment: Selectivity interaction (Reporter gene assay) EUB0001158a RXRA; details: reference bexarotene 1 uM, Selectivity number of off-targets 0.0, Selectivity number of targets 1.0, Source Knowledge inhouse
[29] = target: T1, Hepatocyte nuclear factor 4-alpha (Homo sapiens); experiment: Selectivity interaction (Reporter gene assay) EUB0001159a HNF4A
[30] = target: T2, Nuclear receptor subfamily 2 group C member 1 (Homo sapiens); experiment: Selectivity interaction (Reporter gene assay) EUB0001159a NR2C1
[31] = target: Nuclear receptor subfamily 2 group E member 1 (Homo sapiens) (UniProt Q9Y466); experiment: Selectivity interaction (Reporter gene assay) EUB0001159a NR2E1
[32] = target: Nuclear receptor subfamily 4immunitygroup A member 1 (Homo sapiens) (UniProt P22736); experiment: Selectivity interaction (Reporter gene assay) EUB0001159a NR4A1
[33] = target: Steroidogenic factor 1 (Homo sapiens) (UniProt Q13285); experiment: Selectivity interaction (Reporter gene assay) EUB0001159a NR5A1
[34] = target: T3, Alpha trans-inducing protein (Human alphaherpesvirus 1); experiment: Selectivity interaction (Reporter gene assay) EUB0001159a UL48
[35] = target: T4, Retinoic acid receptor RXR-alpha (Homo sapiens); experiment: Selectivity interaction (Reporter gene assay) EUB0001159a RXRA; details: reference bexarotene 1 uM, Selectivity number of off-targets 0.0, Selectivity number of targets 1.0, Source Knowledge inhouse

T3 sequence (A0A5J6DW59 as listed by the source): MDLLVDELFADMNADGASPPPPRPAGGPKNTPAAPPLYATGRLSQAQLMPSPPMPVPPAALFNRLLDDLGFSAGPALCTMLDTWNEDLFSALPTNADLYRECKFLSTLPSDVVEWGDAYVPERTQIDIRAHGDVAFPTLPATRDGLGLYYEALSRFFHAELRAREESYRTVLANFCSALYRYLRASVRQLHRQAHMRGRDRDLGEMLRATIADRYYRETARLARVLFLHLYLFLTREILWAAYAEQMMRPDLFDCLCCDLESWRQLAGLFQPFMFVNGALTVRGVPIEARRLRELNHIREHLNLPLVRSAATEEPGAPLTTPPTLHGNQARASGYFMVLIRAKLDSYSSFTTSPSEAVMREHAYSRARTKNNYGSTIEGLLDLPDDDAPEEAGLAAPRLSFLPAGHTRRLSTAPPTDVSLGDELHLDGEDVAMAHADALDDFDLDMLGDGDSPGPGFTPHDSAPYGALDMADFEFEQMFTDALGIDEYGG
Chain of Steroidogenic factor 1 (Homo sapiens) (Q13285 whole entry): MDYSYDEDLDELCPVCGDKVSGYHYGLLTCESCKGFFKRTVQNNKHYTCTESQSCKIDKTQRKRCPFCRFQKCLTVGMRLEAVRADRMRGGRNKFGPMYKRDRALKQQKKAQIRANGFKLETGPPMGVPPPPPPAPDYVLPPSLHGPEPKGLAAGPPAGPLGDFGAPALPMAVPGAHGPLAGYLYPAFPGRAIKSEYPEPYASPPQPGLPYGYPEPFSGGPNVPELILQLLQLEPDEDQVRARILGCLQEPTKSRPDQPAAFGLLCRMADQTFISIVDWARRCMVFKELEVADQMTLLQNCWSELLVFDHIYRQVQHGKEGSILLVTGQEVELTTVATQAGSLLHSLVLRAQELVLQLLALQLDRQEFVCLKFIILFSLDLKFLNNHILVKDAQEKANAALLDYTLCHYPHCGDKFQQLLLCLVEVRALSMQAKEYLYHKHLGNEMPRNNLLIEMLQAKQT
Chain of Nuclear receptor subfamily 2 group E member 1 (Homo sapiens) (Q9Y466 whole entry): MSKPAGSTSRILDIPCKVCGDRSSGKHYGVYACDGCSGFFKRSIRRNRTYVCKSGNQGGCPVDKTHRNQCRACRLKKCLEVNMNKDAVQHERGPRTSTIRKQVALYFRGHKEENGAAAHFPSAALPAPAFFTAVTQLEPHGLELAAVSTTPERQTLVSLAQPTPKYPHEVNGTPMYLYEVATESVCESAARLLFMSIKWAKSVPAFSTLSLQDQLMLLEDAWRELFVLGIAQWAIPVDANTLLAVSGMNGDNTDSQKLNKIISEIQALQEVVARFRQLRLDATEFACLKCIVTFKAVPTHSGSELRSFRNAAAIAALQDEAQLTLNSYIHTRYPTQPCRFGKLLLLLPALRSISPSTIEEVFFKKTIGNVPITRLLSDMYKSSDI
Chain of Nuclear receptor subfamily 4immunitygroup A member 1 (Homo sapiens) (P22736 whole entry): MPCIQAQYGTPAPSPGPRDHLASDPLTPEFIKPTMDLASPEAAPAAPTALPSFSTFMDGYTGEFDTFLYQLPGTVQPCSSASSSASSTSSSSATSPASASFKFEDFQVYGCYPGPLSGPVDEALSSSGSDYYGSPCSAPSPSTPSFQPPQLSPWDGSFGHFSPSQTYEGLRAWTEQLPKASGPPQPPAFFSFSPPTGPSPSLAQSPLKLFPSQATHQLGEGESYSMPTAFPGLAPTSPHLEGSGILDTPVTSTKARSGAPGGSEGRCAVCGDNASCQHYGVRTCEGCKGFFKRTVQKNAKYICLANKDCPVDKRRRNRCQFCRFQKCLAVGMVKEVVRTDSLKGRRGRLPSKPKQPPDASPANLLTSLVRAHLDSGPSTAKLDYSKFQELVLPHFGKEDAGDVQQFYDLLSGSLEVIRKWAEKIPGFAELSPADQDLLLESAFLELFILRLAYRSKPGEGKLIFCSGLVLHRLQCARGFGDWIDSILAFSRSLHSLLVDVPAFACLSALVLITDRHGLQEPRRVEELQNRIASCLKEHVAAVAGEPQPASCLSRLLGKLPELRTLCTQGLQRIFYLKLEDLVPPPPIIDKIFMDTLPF

- Remaining activity [1]: 0.928
- Fold activation [2]: 1.13
- Fold activation [3]: 1.06
- Fold activation [4]: 1.11
- Remaining activity [5]: 0.86
- P-value [6]: 0.00117
- Relative activation [7]: 0.795%
Compound: CC(=O)Oc1ccc2c(c1)[C@@]1(C)CCC[C@](C)(C(=O)OC(=O)[C@@]3(C)CCC[C@]4(C)c5cc(OC(C)=O)ccc5CC[C@@H]34)[C@@H]1CC2

- Remaining activity [8]: 0.878
- Fold activation [9]: 1.26
- Fold activation [10]: 1.21
- Remaining activity [11]: 0.922
- Remaining activity [12]: 0.561
- P-value [13]: 0.00194
- Relative activation [14]: 1.19%
Compound: OC(c1ccc(-c2ccc(CN3CCN(Cc4ccncc4)CC3)cc2)c(F)c1)(C(F)(F)F)C(F)(F)F

- Fold activation [15]: 1.15
- Fold activation [16]: 1.38
- Remaining activity [17]: 0.931
- Fold activation [18]: 1.01
- Fold activation [19]: 1.21
- P-value [20]: 0.000455
- Relative activation [21]: 0.459%
Compound: CC(C)(O)c1cn(-c2ccc(-c3cccc(S(C)(=O)=O)c3)cc2)c(C(C)(C)c2ccccc2Cl)n1

- Remaining activity [22]: 0.71
- Remaining activity [23]: 0.684
- Remaining activity [24]: 0.58
- Remaining activity [25]: 0.661
- Remaining activity [26]: 0.814
- P-value [27]: 3.31e-05
- Relative activation [28]: 0.191%
Compound: CC(=O)Nc1nc(C)c(S(=O)(=O)Nc2ccc(C(O)(C(F)(F)F)C(F)(F)F)cc2)s1

- Remaining activity [29]: 0.994
- Remaining activity [30]: 0.852
- Remaining activity [31]: 0.852
- Remaining activity [32]: 0.905
- Remaining activity [33]: 0.989
- P-value [34]: 0.00142
- Relative activation [35]: 0.288%
Compound: CCc1ccc(N(CC(C)C)S(=O)(=O)c2ccc(OCC3CCOCC3)c(CO)c2)cc1

— ChEMBL document CHEMBL5715260, “Selectivity Literature for EUbOPEN Chemogenomic Library” (2024)
